US20130288897A1, “SYNERGISTIC PESTICIDAL COMPOSITIONS” (Dow AgroSciences LLC, priority 2012, published 2013)
Values joined by “and” are separate entries in the source; they are usually repeats but may differ in a detail not shown here. Identical values can stand only once.

System: cotton aphid (CA) Aphis gossypii
Test: Cotton aphid track-sprayer test on cotton: Compound A with glufosinate (Liberty) and AMS, rates 0.4, 0.1 and 0.025 g/Ha (Example XVIII)
Assay type: in vivo
Details: for % control Negatives to zero / CA Counts / Colby Predicted Values: Rep 1-6
Procedure: Glyphosate resistant cotton plants (Gossypium hirsutum, cv ‘DP493’) were trimmed to 1 true leaf and infested with mixed stages of cotton aphid (CA) Aphis gossypii 24 hours prior to application. Mixed developmental stage CA were infested onto the upper surface of each treated leaf by transferring infested foliage from an insectary colony. Each plant was infested with approximately equal numbers of CA based on visual estimation of aphid density on the infested material. Infested plants were held in the growth chamber (L:D 16:8 and 25° C.). Glufosinate (Liberty®, Bayer CropScience, Monheim am Rhein, Germany) was mixed with water at a rate equivalent to 5 ml/L (0.4 qt/Ac). […] High rate Compound A concentrations were created by diluting Compound A technical material with acetone to achieve a 20 ppm solution. […] […] […] Nozzle height above the canopy was held constant at ca. 30 cm. Plants were evaluated after 3 days from the time of infestation by counting all live cotton aphids on each plant.

[1] = 0.025 g In./HA + Lib. 0.005 ml/ml
[2] = 0.025 g In./HA + Lib. 0.005 ml/ml + AMS 18 g/L
[3] = 0.1 g In./HA + Lib. 0.005 ml/ml
[4] = 0.1 g In./HA + Lib. 0.005 ml/ml + AMS 18 g/L
[5] = 0.4 g In./HA + Lib. 0.005 ml/ml
[6] = 0.4 g In./HA + Lib. 0.005 ml/ml + AMS 18 g/L
[7] = 0.05 g In./HA + Lib. 0.005 ml/ml
[8] = 0.05 g In./HA + Lib. 0.005 ml/ml + AMS 18 g/L
[9] = 0.2 g In./HA + Lib. 0.005 ml/ml
[10] = 0.2 g In./HA + Lib. 0.005 ml/ml + AMS 18 g/L
[11] = 0.8 g In./HA + Lib. 0.005 ml/ml
[12] = 0.8 g In./HA + Lib. 0.005 ml/ml + AMS 18 g/L

## CC(c1ccc(C(F)(F)F)nc1)S(C)(=O)=NC#N (centres unmarked) [Compound A, [1-(6-Trifluoromethylpyridin-3-yl)ethyl](methyl)-oxido-λ^4-sulfanylidenecyanamide]
[1]
  % Control (Negatives to zero) Ave: 54.2%
  Colby Predicted Values Ave: 56.8
[2]
  % Control (Negatives to zero) Ave: 85.6%
  Colby Predicted Values Ave: 62.5
  % control Negatives to zero: 70.0% and 95.4% and 97.0% and 89.1% and 65.9% and 96.2%
[3]
  % Control (Negatives to zero) Ave: 76.7%
  Colby Predicted Values Ave: 72.4
  % control Negatives to zero: 58.2% and 79.2% and 98.0% and 58.5% and 82.6% and 84.0%
  Colby Predicted Values: 74.4 and 70.0 and 71.8 and 78.3 and 93.2 and 46.6
[4]
  % Control (Negatives to zero) Ave: 89.7%
  Colby Predicted Values Ave: 76.7
  % control Negatives to zero: 95.2% and 89.4% and 91.2% and 81.2% and 99.0% and 81.9%
  Colby Predicted Values: 81.3 and 73.3 and 73.7 and 78.5 and 93.8 and 59.6
0.1 g In./HA, no Lib., no AMS
  % Control (Negatives to zero) Ave: 62.1%
  % control Negatives to zero: 65.2% and 70.0% and 54.2% and 73.5% and 70.9% and 38.7%
[5]
  % Control (Negatives to zero) Ave: 99.0%
  Colby Predicted Values Ave: 98.2
  % control Negatives to zero: 97.8% and 100.0% and 99.0% and 98.4% and 98.7%
  Colby Predicted Values: 99.3 and 97.9 and 96.6 and 99.2 and 97.3
[6]
  % Control (Negatives to zero) Ave: 98.2%
  Colby Predicted Values Ave: 98.4
  % control Negatives to zero: 98.2% and 100.0% and 98.3% and 92.7%
  Colby Predicted Values: 99.0 and 99.4 and 98.1 and 96.6 and 99.3 and 97.9
0.4 g In./HA, no Lib., no AMS
  % Control (Negatives to zero) Ave: 97.3%
  % control Negatives to zero: 98.2% and 99.3% and 96.6% and 95.8% and 96.7% and 96.9%
0025 g In./HA, no Lib., no AMS
  % Control (Negatives to zero) Ave: 39.5%
0.025 g In./Ha, no Liberty, no AMS
  CA Counts: 198 and 126 and 194 and 117 and 231 and 212

## O=[N+]([O-])NC1=NCCN1Cc1ccc(Cl)nc1 [Imidacloprid, imidacloprid, reference compound]
[7]
  % Control (Negatives to zero) Ave: 24.3%
  Colby Predicted Values Ave: 45.1
[8]
  % Control (Negatives to zero) Ave: 76.9%
  Colby Predicted Values Ave: 51.7
  % control Negatives to zero: 84.6% and 71.0% and 86.9% and 48.9% and 79.9% and 89.9%
0.05 g In./HA, no Lib., no AMS
  % Control (Negatives to zero) Ave: 19.0%
[9]
  % Control (Negatives to zero) Ave: 27.0%
  Colby Predicted Values Ave: 54.6
[10]
  % Control (Negatives to zero) Ave: 54.3%
  Colby Predicted Values Ave: 60.7
0.2 g In./HA, no Lib., no AMS
  % Control (Negatives to zero) Ave: 38.7%
[11]
  % Control (Negatives to zero) Ave: 72.3%
  Colby Predicted Values Ave: 86.1
  % control Negatives to zero: 87.5% and 73.3% and 71.0% and 78.3% and 69.2% and 54.7%
  Colby Predicted Values: 81.9 and 81.5 and 94.8 and 78.1 and 94.0 and 86.3
[12]
  % Control (Negatives to zero) Ave: 96.5%
  Colby Predicted Values Ave: 88.0
  % control Negatives to zero: 96.7% and 94.4% and 96.0% and 94.2% and 98.3% and 99.7%
  Colby Predicted Values: 86.8 and 83.6 and 95.2 and 78.2 and 94.5 and 89.7
0.8 g In./HA, no Lib., no AMS
  % Control (Negatives to zero) Ave: 80.0%
  % control Negatives to zero: 75.5% and 81.5% and 91.6% and 73.2% and 74.2% and 84.3%
0.2 g In./Ha + Liberty 0.005 ml/ml
  CA Counts: 187 and 234 and 169 and 198 and 265 and 240
0.2 g In./Ha, no Liberty, no AMS
  CA Counts: 154 and 165 and 228 and 241 and 176 and 123
